Patent US20210369787A1, “ADIPOCYTE MEDIATED DELIVERY OF ANTICANCER THERAPEUTICS” (NORTH CAROLINA STATE UNIVERSITY, priority 2018, published 2021)

What was measured:
FABP4 [1] = experiment: FABP4 amount in B16F10 cells after transwell co-culture, Western blot; assay type: cell-based, mouse
Method: (§1) For Western blot, flow cytometry, and adipokine profiling (R&D Systems catalog no. ARY013), 6 well transwell system was used with cancer cells cultured in the transwell insert and adipocytes in the bottom. Cells or medium were analyzed after co-culturing for 72 h. To determine the role of FABP4 during the crosstalk, 30 μM BMS309403 was added in the medium to block FABP4. Antibodies used for Western blot included β-actin (catalog no. sc-47778, Santa Cruz), FABP4 (catalog no. 701158, Thermo Fisher), PD-L1 (catalog no. ab205921, Abcam). PE channel was used to determine pDox fluorescence in adipocytes and cancer cells.

B16F10 cells [2] = experiment: pDox uptake and transport from adipocytes to B16F10 in transwell, flow cytometry; assay type: cell-based, mouse
Method: as §1

B16F10 cells [3] = experiment: Transwell co-culture of loaded adipocytes with B16F10, MTT; assay type: cell-based, mouse
Method: Cytotoxicity of drug and fatty acid was determined by MTT assay in 96-well plate after 48 h. Tumor cell killing or promoting effect of drug or fatty acid loaded adipocytes was determined in a transwell system where adipocytes were seeded in the 24 well plate and tumor cells grew in the transwell insert. After culturing for 72 h, cell proliferation of cancer cells in the transwell insert was determined by MTT assay.
as §1

PD-L1 = PD-L1 expression of B16F10 in transwell system, Western blot; assay type: cell-based, mouse
Method: as §1

FABP4 [4] = biological target: FABP4 (Homo sapiens, UniProt P15090); experiment: Fluorescence polarization binding of Dox or pDox to FABP4
Method: Fluorescence polarization was measured using QuantaMaster 40 UV/VIS Steady State Spectrofluorometer (Photon Technology International). The dissociation constant (Kd) was calculated for each by fitting the observed polarization ([mP]) to a general equation for two state binding as previously described.2

[5] = test system: 3T3-L1 cell-differentiated adipocytes; experiment: Lipid accumulation in adipocytes, Oil Red O staining; assay type: cell-based; conditions: for lipid accumulation in adipocytes: added during 3T3-L1 differentiation, oil red staining
Method: Lipid accumulation in adipocytes was evaluated by Oil Red 0 staining and quantified by optical density measurement at 540 nm. Preadipocytes were cultured, differentiated, and drug encapsulated in 6-well transwell insert, and co-cultured with 5*10^5 pre-cultured B16F10 or fibroblasts in 6 well plate to determine drug release profiles, which was calculated according to drug amount remained in adipocytes. Concentration of free fatty acid in co-cultured medium was measured using Free Fatty Acid Quantitation Kit (Sigma-Aldrich, catalog no. MAK044). […] Then, 100 μL extraction solution (0.75 M HCl in isopropanol) was added and incubated at −20° C. overnight. The fluorescence of supernatant at 498(excitation)/591(emission) nm was measured after centrifugation at 20000 g for 15 min. The maintenance medium was changed three to four times for animal work.

Chain of FABP4 (Homo sapiens, UniProt P15090) (P15090 whole entry, species assumed): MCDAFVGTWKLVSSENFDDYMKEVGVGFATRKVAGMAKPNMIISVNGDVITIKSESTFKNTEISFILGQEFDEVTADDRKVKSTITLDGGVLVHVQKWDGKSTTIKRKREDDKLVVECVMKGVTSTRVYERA

Row | SMILES | effect on adipocyte-induced rise of FABP4 in B16F10 cells (FABP4 [1]) | effect on uptake of pDox in adipocytes (B16F10 cells [2]; during pDox absorption) | effect on RA@adipocyte-promoted pDox uptake (B16F10 cells [2]; transwell co-culture) | effect on transportation of pDox from adipocytes to B16F10 cells (B16F10 cells [2]; transwell, flow cytometry) | effect on cytotoxicity of pDox from adipocytes to B16F10 cells (B16F10 cells [3]; BMS309403 added to transwell medium (30 μM)) | effect on cell killing by pDox+RA@adipocytes (B16F10 cells [3]; FABP4 inhibitor in transwell medium) | effect on PD-L1 suppression by RA@adipocytes and CLA@adipocyte (PD-L1) | specific binding to FABP4 (FABP4 [4]) | lipid accumulation in adipocytes [5] | effect on inhibition of lipid droplet formation by Dox and pDox ([5]; RA added during differentiation)
1 | CCc1c(-c2ccccc2)c(-c2ccccc2)nn1-c1ccccc1-c1cccc(OCC(=O)O)c1 [BMS309403] | inhibit | did not affect | inhibited | partially inhibited | partially reversed | partially reversed | partially reversed | – | – | –
2 | COc1cccc2c1C(=O)c1c(O)c3c(c(O)c1C2=O)C[C@@](O)(C(=O)CO)C[C@@H]3O[C@H]1C[C@H](N)[C@H](O)[C@H](C)O1 [Dox, doxorubicin] | – | – | – | – | – | – | – | almost no specific binding | significantly inhibited | –
3 | CCCCCC/C=C/C=C\CCCCCCCC(=O)O [RA, 9Z, 11E-conjugated linoleic acid] | – | – | – | – | – | – | – | – | enhance lipid accumulation | partially reversed
